Assay results: ChEMBL document CHEMBL3861969, “Acredinone C and the Effect of Acredinones on Osteoclastogenic and Osteoblastogenic Activity” (J Nat Prod, 2016)
The source made the active and inactive calls. No cut-off for these calls is given here.

Key:
[1] = species: Mus musculus; test: Cytotoxicity against mouse BMDM cells assessed as reduction in cell viability up to 10 uM after 3 days in presence of M-CSF by CCK-8 assay; assay type: toxicity, cell-based; settings: 72 h
[2] = system: C2C12; test: Induction of osteoblast differentiation in mouse C2C12 cells assessed as increase in BMP2-induced ALP activity preincubated with cells after 3 days using p-nitrophenyl phosphate as substrate; assay type: functional, cell-based
[3] = system: C2C12; test: Increase in BMP2-induced BMP6 mRNA expression in mouse C2C12 cells at 10 uM measured on day 3 by real-time PCR analysis; assay type: functional, cell-based
[4] = molecular target: T1, NF-kappa-B inhibitor alpha (Mus musculus) (UniProt Q9Z1E3); test: Inhibition of RANKL-induced IkBalpha phosphorylation in mouse BMDM cells at 10 uM preincubated for 5 mins followed RANKL/M-CSF addition for 5 mins by Western blot analysis; assay type: cell-based
T1 sequence (whole entry): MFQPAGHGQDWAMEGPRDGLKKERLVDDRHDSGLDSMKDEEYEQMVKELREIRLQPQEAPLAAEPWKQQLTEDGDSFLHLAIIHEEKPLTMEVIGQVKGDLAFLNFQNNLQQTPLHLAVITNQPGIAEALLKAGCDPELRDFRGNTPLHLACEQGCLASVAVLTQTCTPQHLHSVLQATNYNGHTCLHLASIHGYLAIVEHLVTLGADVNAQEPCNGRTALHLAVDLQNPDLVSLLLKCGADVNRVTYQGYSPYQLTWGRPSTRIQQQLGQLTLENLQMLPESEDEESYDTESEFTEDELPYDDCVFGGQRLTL

[5] = system: BMDM; test: Inhibition of RANKL-induced OSCAR mRNA expression in mouse BMDM cells at 10 uM preincubated with cells followed by RANKL addition measured after 2 days by real-time PCR analysis; assay type: functional, cell-based
[6] = system: BMDM; test: Inhibition of RANKL-induced TRAP mRNA expression in mouse BMDM cells at 10 uM preincubated with cells followed by RANKL addition measured after 2 days by real-time PCR analysis; assay type: functional, cell-based
[7] = molecular target: Mitogen-activated protein kinase 8 (Mus musculus) (UniProt Q91Y86); test: Inhibition of RANKL-induced JNK1 phosphorylation in mouse BMDM cells assessed as ratio of phosphorylated JNK1 to JNK1 at 10 uM preincubated for 5 mins followed RANKL/M-CSF addition for 5 mins by Western blot analysis (reference value: 3.7); assay type: cell-based
Chain of Mitogen-activated protein kinase 8 (Mus musculus) (Q91Y86 whole entry): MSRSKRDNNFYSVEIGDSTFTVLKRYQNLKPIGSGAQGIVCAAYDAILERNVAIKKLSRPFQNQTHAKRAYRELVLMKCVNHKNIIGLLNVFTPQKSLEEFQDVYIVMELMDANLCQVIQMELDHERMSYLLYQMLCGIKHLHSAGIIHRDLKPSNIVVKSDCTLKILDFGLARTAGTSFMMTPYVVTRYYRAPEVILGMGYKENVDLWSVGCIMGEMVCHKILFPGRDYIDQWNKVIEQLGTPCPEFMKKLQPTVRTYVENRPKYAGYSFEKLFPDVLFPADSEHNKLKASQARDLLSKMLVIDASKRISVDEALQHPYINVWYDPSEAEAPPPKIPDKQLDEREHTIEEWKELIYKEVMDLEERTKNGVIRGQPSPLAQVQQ

[8] = system: Mus musculus; test: Osteogenic activity in ICR mouse calvarial bone implanted with collagen sponges containing 10 mM compound incubated for 2 weeks assessed as increase in bone volume relative to control; assay type: functional
[9] = system: C2C12; test: Increase in BMP2-induced BMP4 mRNA expression in mouse C2C12 cells at 10 uM measured on day 3 by real-time PCR analysis; assay type: functional, cell-based
[10] = system: BMDM; test: Inhibition of RANKL-induced c-Src mRNA expression in mouse BMDM cells at 10 uM preincubated with cells followed by RANKL addition measured after 2 days by real-time PCR analysis; assay type: functional, cell-based
[11] = molecular target: T2, SMAD1/5/9 (Mus musculus) (UniProt P70340+P97454+Q9JIW5); test: Increase in BMP2-induced Smad1/5/8 phosphorylation in mouse C2C12 cells assessed as ratio of phosphorylated Smad1/5/8 to Smad1/5/8 in nuclear fraction at 10 uM preincubated with cells followed by BMP2 addition for 4 hrs by Western blot analysis (reference value: 1.2); assay type: cell-based
[12] = system: BMDM; test: Inhibition of RANKL-induced mouse BMDM cell differentiation assessed as TRAP-positive MNCs at 0.1 to 10 uM preincubated for 5 mins followed by RANKL/M-CSF addition measured after 4 days by TRAP-staining based assay; assay type: functional
[13] = system: C2C12; test: Increase in BMP2-induced BMP7 mRNA expression in mouse C2C12 cells at 10 uM measured on day 3 by real-time PCR analysis; assay type: functional, cell-based
[14] = system: C2C12; test: Increase in BMP2-induced BMP9 mRNA expression in mouse C2C12 cells at 10 uM measured on day 3 by real-time PCR analysis; assay type: functional, cell-based
[15] = molecular target: T2, SMAD1/5/9 (Mus musculus); test: Activation of Smad1/5/8 in mouse C2C12 cells assessed as increase in BMP2-stimulated Runx2 mRNA expression at 10 uM preincubated with cells followed by BMP2 addition after 3 days by real-time PCR analysis; assay type: cell-based
[16] = molecular target: MAP kinase p38 (Mus musculus) (UniProt P47811+O08911+Q9WUI1+Q9Z1B7); test: Inhibition of RANKL-induced p38 phosphorylation in mouse BMDM cells assessed as ratio of phosphorylated p38 to p38 at 10 uM preincubated for 5 mins followed RANKL/M-CSF addition for 5 mins by Western blot analysis (reference value: 24.7); assay type: cell-based
[17] = molecular target: T2, SMAD1/5/9 (Mus musculus); test: Increase in BMP2-induced Smad1/5/8 nuclear translocation in mouse C2C12 cells assessed as ratio of Smad1/5/8 to lamin B1 in nuclear fraction at 10 uM preincubated with cells followed by BMP2 addition for 4 hrs by Western blot analysis (reference value: 1.5); assay type: cell-based
[18] = molecular target: Mitogen-activated protein kinase 3 (Mus musculus) (UniProt Q63844); test: Inhibition of RANKL-induced ERK1 phosphorylation in mouse BMDM cells assessed as ratio of phosphorylated ERK1 to ERK1 at 10 uM preincubated for 5 mins followed RANKL/M-CSF addition for 5 mins by Western blot analysis (reference value: 2.9); assay type: cell-based
Chain of Mitogen-activated protein kinase 3 (Mus musculus) (Q63844 whole entry): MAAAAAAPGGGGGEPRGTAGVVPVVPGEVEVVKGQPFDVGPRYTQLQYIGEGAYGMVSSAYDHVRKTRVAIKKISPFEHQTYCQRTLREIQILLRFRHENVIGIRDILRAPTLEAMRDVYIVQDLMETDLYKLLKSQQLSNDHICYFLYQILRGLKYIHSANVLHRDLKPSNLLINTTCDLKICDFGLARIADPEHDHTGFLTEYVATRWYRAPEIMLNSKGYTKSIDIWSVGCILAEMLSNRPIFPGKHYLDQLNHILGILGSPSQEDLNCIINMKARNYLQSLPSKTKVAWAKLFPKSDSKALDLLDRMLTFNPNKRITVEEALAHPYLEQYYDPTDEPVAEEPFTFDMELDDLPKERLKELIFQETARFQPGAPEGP

[19] = molecular target: Mitogen-activated protein kinase 9 (Mus musculus) (UniProt Q9WTU6); test: Inhibition of RANKL-induced JNK2 phosphorylation in mouse BMDM cells assessed as ratio of phosphorylated JNK2 to JNK2 at 10 uM preincubated for 5 mins followed RANKL/M-CSF addition for 5 mins by Western blot analysis (reference value: 5.2); assay type: cell-based
Chain of Mitogen-activated protein kinase 9 (Mus musculus) (Q9WTU6 whole entry): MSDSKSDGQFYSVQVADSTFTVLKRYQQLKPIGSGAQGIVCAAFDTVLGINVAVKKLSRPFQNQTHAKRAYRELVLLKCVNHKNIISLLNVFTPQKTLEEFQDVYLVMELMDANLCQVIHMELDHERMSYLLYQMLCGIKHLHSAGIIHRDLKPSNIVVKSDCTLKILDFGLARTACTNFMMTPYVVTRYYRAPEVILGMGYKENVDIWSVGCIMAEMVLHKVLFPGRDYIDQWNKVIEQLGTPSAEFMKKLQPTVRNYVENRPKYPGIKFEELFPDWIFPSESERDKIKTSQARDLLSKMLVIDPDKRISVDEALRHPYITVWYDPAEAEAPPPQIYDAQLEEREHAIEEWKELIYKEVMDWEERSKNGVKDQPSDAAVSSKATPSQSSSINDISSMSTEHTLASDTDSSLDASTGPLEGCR

[20] = system: C2C12; test: Increase in BMP2-induced BMP2 protein expression in mouse C2C12 cells assessed as ration of BMP2 to actin at 10 uM measured on day 3 by Western blot analysis (reference value: 1.4); assay type: functional
[21] = system: C2C12; test: Induction of BMP2-induced osteoblast differentiation in mouse C2C12 cells preincubated with cells after 3 days by […] assay; assay type: functional, cell-based
[22] = system: Osteoclast; test: Inhibition of RANKL-induced mouse BMDM cell differentiation assessed as reduction in TRAP-positive multi-nucleated osteoclast cells preincubated for 5 mins followed by RANKL/M-CSF addition measured after 4 days by light microscopic analysis; assay type: functional, cell-based
[23] = Inhibition of RANKL-induced c-Fos expression in mouse BMDM cells assessed as ratio of c-Fos to actin at 10 uM preincubated with cells followed RANKL/M-CSF addition measured after 1 day by Western blot analysis (reference value: 6.4); assay type: functional
[24] = molecular target: RAC-alpha serine/threonine-protein kinase (Mus musculus) (UniProt P31750); test: Inhibition of RANKL-induced AKT phosphorylation in mouse BMDM cells assessed as ratio of phosphorylated AKT to AKT at 10 uM preincubated for 5 mins followed RANKL/M-CSF addition for 5 mins by Western blot analysis (reference value: 2.1); assay type: cell-based
Chain of RAC-alpha serine/threonine-protein kinase (Mus musculus) (P31750 whole entry): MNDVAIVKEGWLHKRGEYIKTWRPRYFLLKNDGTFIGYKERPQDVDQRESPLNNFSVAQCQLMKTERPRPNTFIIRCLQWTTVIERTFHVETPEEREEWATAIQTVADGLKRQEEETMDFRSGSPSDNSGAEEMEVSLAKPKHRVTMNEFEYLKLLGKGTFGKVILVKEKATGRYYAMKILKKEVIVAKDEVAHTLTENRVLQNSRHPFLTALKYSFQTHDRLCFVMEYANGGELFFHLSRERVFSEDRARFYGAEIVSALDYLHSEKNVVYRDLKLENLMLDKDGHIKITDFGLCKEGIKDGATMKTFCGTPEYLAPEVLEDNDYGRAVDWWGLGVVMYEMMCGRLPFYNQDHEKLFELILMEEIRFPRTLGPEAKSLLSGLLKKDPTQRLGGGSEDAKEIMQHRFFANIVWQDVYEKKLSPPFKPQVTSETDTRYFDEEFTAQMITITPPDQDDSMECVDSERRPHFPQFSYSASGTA

[25] = system: C2C12; test: Increase in BMP2-induced BMP7 protein expression in mouse C2C12 cells assessed as ratio of BMP7 to actin at 10 uM measured on day 6 by Western blot analysis (reference value: 2.4); assay type: functional
[26] = molecular target: T2, SMAD1/5/9 (Mus musculus); test: Activation of Smad1/5/8 in mouse C2C12 cells assessed as increase in BMP2-stimulated […] mRNA expression at 10 uM preincubated with cells followed by BMP2 addition after 3 days by real-time PCR analysis; assay type: cell-based
[27] = molecular target: T2, SMAD1/5/9 (Mus musculus); test: Increase in BMP2-induced Smad1/5/8 nuclear translocation in mouse C2C12 cells assessed as ratio of Smad1/5/8 to actin in cytosol fraction at 10 uM preincubated with cells followed by BMP2 addition for 4 hrs by Western blot analysis (reference value: 0.4); assay type: cell-based
[28] = molecular target: T2, SMAD1/5/9 (Mus musculus); test: Activation of Smad1/5/8 in mouse C2C12 cells assessed as increase in BMP2-stimulated OPN mRNA expression at 10 uM preincubated with cells followed by BMP2 addition after 3 days by real-time PCR analysis; assay type: cell-based
[29] = system: BMDM; test: Inhibition of RANKL-induced DC-STAMP mRNA expression in mouse BMDM cells at 10 uM preincubated with cells followed by RANKL addition measured after 2 days by real-time PCR analysis; assay type: functional, cell-based
[30] = system: BMDM; test: Inhibition of RANKL-induced NFATc1 mRNA expression in mouse BMDM cells at 10 uM preincubated with cells followed by RANKL addition measured after 2 days by real-time PCR analysis; assay type: functional, cell-based
[31] = system: Mus musculus; test: Osteogenic activity in ICR mouse calvarial bone implanted with collagen sponges containing 10 mM compound incubated for 2 weeks assessed as increase in woven bone formation near periosteum of the calvarial bone by hematoxylin and eosin staining based assay relative to control; assay type: functional
[32] = system: BMDM; test: Inhibition of RANKL-induced mouse BMDM cell differentiation assessed as TRAP-positive MNCs at 0.1 to 30 uM preincubated for 5 mins followed by RANKL/M-CSF addition measured after 4 days by TRAP-staining based assay; assay type: functional
[33] = system: C2C12; test: Increase in BMP2-induced BMP2 mRNA expression in mouse C2C12 cells at 10 uM measured on day 3 by real-time PCR analysis; assay type: functional, cell-based
[34] = molecular target: Mitogen-activated protein kinase 1 (Mus musculus) (UniProt P63085); test: Inhibition of RANKL-induced ERK2 phosphorylation in mouse BMDM cells assessed as ratio of phosphorylated ERK2 to ERK2 at 10 uM preincubated for 5 mins followed RANKL/M-CSF addition for 5 mins by Western blot analysis (reference value: 2.6); assay type: cell-based
Chain of Mitogen-activated protein kinase 1 (Mus musculus) (P63085 whole entry): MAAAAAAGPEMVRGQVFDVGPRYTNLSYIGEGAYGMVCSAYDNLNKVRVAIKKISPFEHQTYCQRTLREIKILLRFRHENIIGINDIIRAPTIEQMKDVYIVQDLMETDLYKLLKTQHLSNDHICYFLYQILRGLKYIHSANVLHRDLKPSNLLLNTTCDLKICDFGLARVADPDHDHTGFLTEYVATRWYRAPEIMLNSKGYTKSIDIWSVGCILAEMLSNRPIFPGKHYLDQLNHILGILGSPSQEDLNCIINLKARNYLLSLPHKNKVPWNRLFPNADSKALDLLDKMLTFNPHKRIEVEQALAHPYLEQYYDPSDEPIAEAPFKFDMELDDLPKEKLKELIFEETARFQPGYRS

[35] = Inhibition of RANKL-induced NFATc1 expression in mouse BMDM cells assessed as ratio of NFATc1 to actin at 10 uM preincubated with cells followed RANKL/M-CSF addition measured after 1day by Western blot analysis (reference value: 281); assay type: functional
[36] = system: BMDM; test: Inhibition of RANKL-induced cathespin K mRNA expression in mouse BMDM cells at 10 uM preincubated with cells followed by RANKL addition measured after 2 days by real-time PCR analysis; assay type: functional, cell-based
[37] = species: Mus musculus; test: Cytotoxicity against mouse C2C12 cells assessed as reduction cell viability after 3 days in presence of BMP2 by CCK-8 assay; assay type: toxicity, cell-based; settings: c2c12, 72 h
[38] = system: BMDM; test: Inhibition of RANKL-induced mouse BMDM cell differentiation assessed as reduction in TRAP activity at 0.1 to 30 uM using p-nitrophenyl phosphate as substrate preincubated for 5 mins followed by RANKL/M-CSF addition measured after 4 days; assay type: functional, cell-based
[39] = system: C2C12; test: Induction of BMP2-induced osteoblast differentiation in mouse C2C12 cells assessed as increase in ALP mRNA expression at 10 uM preincubated with cells followed by BMP2 addition measured after 3 days by real-time PCR analysis; assay type: functional, cell-based
[40] = species: Mus musculus; test: Cytotoxicity against mouse BMDM cells assessed as reduction in cell viability at 30 uM after 3 days in presence of M-CSF by CCK-8 assay; assay type: toxicity, cell-based; settings: 72 h

inhibition [4] | fold change (FC) [7] | fold change (FC) [16] | fold change (FC) [18] | fold change (FC) [19] | fold change (FC) [24] | fold change (FC) [34] | Structure (SMILES) | Activity [1] | inhibition [5] | inhibition [6] | inhibition [10] | inhibition [12] | inhibition [22] | fold change (FC) [23] | inhibition [29] | inhibition [30] | inhibition [32] | fold change (FC) [35] | inhibition [36] | Activity [37] | also measured
Active | 2.9 | 13.2 | 3.2 | 4.3 | 2 | 2.8 | COc1cccc(OC)c1C(=O)c1c(O)cc(C)c(OC)c1C1=C(c2c(OC)cccc2OC)c2c(O)cc(C)c(OC)c2C1=O | Non-Toxic | Active | Active | Active | Active | Dose-dependent effect | 5.5 | Active | Active | Active | 175 | Active | Non-Toxic | Activity [2]: Dose-dependent effect; Activity [3]: Active; fold change (FC) [8]: 2.7; Activity [9]: Active; fold change (FC) [11]: 1.7; Activity [13]: Active; Activity [14]: Active; Activity [15]: Active; fold change (FC) [17]: 2.4; fold change (FC) [20]: 3.8; Activity [21]: Dose-dependent effect; fold change (FC) [25]: 3.1; Activity [26]: Active; fold change (FC) [27]: 0.1; Activity [28]: Active; Activity [31]: Active; Activity [33]: Active; inhibition [38]: Active; Activity [39]: Active
Active | 2.7 | 20.2 | 2.1 | 4.2 | 1.1 | 1.7 | COc1cccc(OC)c1C(=O)c1c(O)cc(C)c(OC)c1CC(=O)c1c(OC)c(C)cc(O)c1C(=O)c1c(OC)cccc1OC | Non-Toxic | Active | Active | Active | Active | Dose-dependent effect | 3.5 | Active | Active | Active | 124 | Active | Non-Toxic | Activity [40]: Toxic; inhibition [38]: Active; Activity [39]: Active
Active | 2.2 | 8.2 | 3.3 | 3.7 | 1.7 | 2.6 | COc1cccc(OC)c1C(=O)c1c(O)cc(C)c(OC)c1C(=O)Cc1c(OC)c(C)cc2oc3cccc(OC)c3c(=O)c12 | Non-Toxic | Active | Active | Active | Active | Dose-dependent effect | 2.4 | Active | Active | Active | 85 | Active | Non-Toxic | inhibition [38]: Active; Activity [39]: Active
